Data on 17 compounds can be found in patent publication US10947252B2, “Inhibitors of KEAP1-Nrf2 protein-protein interaction” (Janssen Pharmaceutica NV, priority 2018, dated 2021).

In assay [1] the target is Kelch domain of human KEAP1 (321-624 aa) (Homo sapiens (Human), UniProt Q14145). The assay is described as follows: KEAP1 KELCH ThermoFluor binding assay.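 Further: Ligand-induced melting temperature shift of E. coli-expressed KEAP1 Kelch protein, Kd estimated from concentration-response curves of ΔTm.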 Particulars: KEAP Kelch […], 1,8-ANS, pH 7.0, average of results obtained, read-out: Tf Kd. Background: Differential scanning fluorimetry follows unfolding on heating by fluorescence.
For assay [2], the system named is Glo-Response ARE-luc2P HEK293 cell line. The assay is described as follows: ARE luciferase reporter cell-based assay.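 Further: luciferase signal tracks Nrf2 activation of the ARE once compounds disrupt KEAP1-Nrf2 binding, read with One-Glo reagent, DMSO serving as low control.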 Particulars: average of results obtained. A general note: In a reporter assay the amount or activity of a reporter protein is the signal.

The structures appear in SMILES notation. Where a name gives a salt, the structure may show the parent alone.

Sequence of Kelch domain of human KEAP1 (321-624 aa) (Q14145 321-624): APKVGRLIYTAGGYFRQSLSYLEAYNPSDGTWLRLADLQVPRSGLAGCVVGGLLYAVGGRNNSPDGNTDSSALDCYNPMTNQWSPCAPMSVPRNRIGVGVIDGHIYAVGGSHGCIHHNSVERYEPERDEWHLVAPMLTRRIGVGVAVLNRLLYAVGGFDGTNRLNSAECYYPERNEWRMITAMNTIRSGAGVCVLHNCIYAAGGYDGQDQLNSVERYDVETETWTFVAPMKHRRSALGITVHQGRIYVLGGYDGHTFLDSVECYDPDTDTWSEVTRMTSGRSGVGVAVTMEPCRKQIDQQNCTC

Usually Kd stands for the equilibrium constant for the complex coming apart. The term EC50 denotes the concentration that produces a half-maximal response. The low end stands for a more potent agent, the high end for a less potent agent. For `CCn1nnc2c(C)c([C@@H](CC(=O)O)c3ccc(C)c(CN4C[C@@H]5CCCCN5c5ncccc5S4(=O)=O)n3)ccc21` (single isomer, unassigned) [Example 303, (*R)-3-(6-(((*S)-5,5-Dioxido-7,7a,8,9,10,11-hexahydro-6H-dipyrido[2,1-d:2′,3′-][1,2,5]thiadiazepin-6-yl)methyl)-5-methylpyridin-2-yl)-3-(1-ethyl-4-methyl-1H-benzo[d][1,2,3]triazol-5-yl)propanoic Acid], the Kd in assay [1] was below 1 nM. Besides, in assay [2] (Homo sapiens, HEK293, 24 h), a half-maximal response (EC50) required 27.1 nM.
As for `Cc1cnc2c(c1)S(=O)(=O)N(Cc1cc([C@H](c3ccn4c(C(F)(F)F)nnc4c3C)C(C)(C)C(=O)O)ccc1C)CC1(CCOCC1)O2` (single isomer, unassigned) [Example 408, (*R)-2,2-dimethyl-3-(4-methyl-3-((8′-methyl-1′,1′-dioxido-2,3,5,6-tetrahydrospiro[pyran-4,4′-pyrido[2,3-b][1,4,5]oxathiazepin]-2′(3′H)-yl)methyl)phenyl)-3-(8-methyl-3-(trifluoromethyl)-[1,2,4]triazolo[4,3-a]pyridin-7-yl)propanoic Acid], the equilibrium dissociation constant (Kd) in assay [1] was 1280 nM. Further, the 50% effective concentration (EC50) in assay [2] (24 hours) was 790 nM.
For `Cc1cnc([C@@H](c2ccn3c(C(F)(F)F)nnc3c2C)C(C)(C)C(=O)O)cc1CN1CC2(CCOCC2)Oc2nc(OCCN3CCCC3)c(C)cc2S1(=O)=O` (single isomer, unassigned) [Example 593, (*S)-2,2-Dimethyl-3-(8-methyl-3-(trifluoromethyl)-[1,2,4]triazolo[4,3-a]pyridin-7-yl)-3-(5-methyl-4-((8′-methyl-1′,1′-dioxido-7′-(2-(pyrrolidin-1-yl)ethoxy)-2,3,5,6-tetrahydrospiro[pyran-4,4′-pyrido[2,3-b][1,4,5]oxathiazepin]-2′(3′H)-yl)methyl)pyridin-2-yl)propanoic Acid], the Kd in assay [1] was below 1 nM. The compound also registered an EC50 in assay [2] (Homo sapiens, HEK293, 24 h) of 89.7 nM.
Taken in the same sequence, the figures for `Cc1ccc(C(CC(=O)O)c2ccn3c(C(F)F)nnc3c2C)cc1CN1C[C@H]2CCCN2c2ncc(C#N)cc2S1(=O)=O` (stereo in doubt) [Example 539, 3-(3-(((*R)-3-Cyano-5,5-dioxido-7a,8,9,10-tetrahydropyrido[2,3-f]pyrrolo[2,1-d][1,2,5]thiadiazepin-6(7H)-yl)methyl)-4-methylphenyl)-3-(3-(difluoromethyl)-8-methyl-[1,2,4]triazolo[4,3-a]pyridin-7-yl)propanoic Acid] were below 1 nM and 76 nM.
On the same counts, the results for `Cc1ccc([C@@H](c2ccn3c(C(F)F)nnc3c2C)C(C)(C)C(=O)O)nc1CN1CC2(CCOCC2)Oc2nc(OCCN3CCCC3)c(C)cc2S1(=O)=O` (single isomer, unassigned) [Example 644, (*S)-3-(3-(Difluoromethyl)-8-methyl-[1,2,4]triazolo[4,3-a]pyridin-7-yl)-2,2-dimethyl-3-(5-methyl-6-((8′-methyl-1′,1′-dioxido-7′-(2-(pyrrolidin-1-yl)ethoxy)-2,3,5,6-tetrahydrospiro[pyran-4,4′-pyrido[2,3-b][1,4,5]oxathiazepin]-2′(3′H)-yl)methyl)pyridin-2-yl)propanoic Acid] are below 1 nM and 51.7 nM.
On the same counts, the results for `Cc1ccc([C@H](CC(=O)O)c2ccn3c(C(F)(F)F)nnc3c2C)cc1CN1CC2(CCOCC2)Oc2ncccc2S1(=O)=O` (single isomer, unassigned) [Example 432, (*S)-3-(3-((1′,1′-dioxido-2,3,5,6-tetrahydrospiro[pyran-4,4′-pyrido[2,3-b][1,4,5]oxathiazepin]-2′(3′H)-yl)methyl)-4-methylphenyl)-3-(8-methyl-3-(trifluoromethyl)-[1,2,4]triazolo[4,3-a]pyridin-7-yl)propanoic Acid] are below 1 nM and 103 nM.
With `Cc1ccc([C@H](CC(=O)O)c2ccc3c(nnn3C3CC3)c2C)cc1CN1C[C@@]2(C)CCCN2c2ncccc2S1(=O)=O` (single isomer, unassigned) [Example 222, (*S)-3-(1-Cyclopropyl-4-methyl-1H-benzo[d][1,2,3]triazol-5-yl)-3-(4-methyl-3-(((*R)-7a-methyl-5,5-dioxido-7a,8,9,10-tetrahydropyrido[2,3-f]pyrrolo[2,1-d][1,2,5]thiadiazepin-6(7H)-yl)methyl)phenyl)propanoic Acid], in assay [1], the dissociation constant Kd is 14 nM. The compound also showed an EC50 in assay [2] (Homo sapiens, HEK293, 24 h) of 350 nM.
Taken in the same sequence, the figures for `Cc1ccc([C@@H](CC(N)=O)c2ccn3c(C(F)(F)F)nnc3c2C)cc1CN1C[C@@H]2CCCCN2c2ncccc2S1(=O)=O` (single isomer, unassigned) [Example 549, (*R)-3-(3-(((*S)-5,5-Dioxido-7,7a,8,9,10,11-hexahydro-6H-dipyrido[2,1-d:2′,3′-f][1,2,5]thiadiazepin-6-yl)methyl)-4-methylphenyl)-3-(8-methyl-3-(trifluoromethyl)-[1,2,4]triazolo[4,3-a]pyridin-7-yl)propanamide] were 84600 nM and above 20000 nM.
On the same counts, the results for `Cc1ccc([C@H](CC(=O)O)c2ccn3c(C(F)F)nnc3c2C)cc1CN1CC2(CC2)Oc2ncc(F)cc2S1(=O)=O` (single isomer, unassigned) [Example 527, (*S)-3-(3-(Difluoromethyl)-8-methyl-[1,2,4]triazolo[4,3-a]pyridin-7-yl)-3-(3-((8′-fluoro-1′,1′-dioxidospiro[cyclopropane-1,4′-pyrido[2,3-b][1,4,5]oxathiazepin]-2′(3′H)-yl)methyl)-4-methylphenyl)propanoic Acid] are below 1 nM and 22.2 nM.
On to `Cc1ccc(C(CC(=O)O)c2cc(OC(F)F)c3c(c2)nnn3C)cc1CN1C[C@H]2CCCN2c2ncccc2S1(=O)=O` (mixture of isomers) [Example 246, 3-(7-(Difluoromethoxy)-1-methyl-1H-benzo[d][1,2,3]triazol-5-yl)-3-(3-(((R)-5,5-dioxido-7a,8,9,10-tetrahydropyrido[2,3-f]pyrrolo[2,1-d][1,2,5]thiadiazepin-6(7H)-yl)methyl)-4-methylphenyl)propanoic Acid and its Trifluoroacetic Acid Salt], for which the dissociation constant Kd in assay [1] was below 1 nM. Also, in assay [2] (Homo sapiens, HEK293, 24 h), the EC50 was 87.3 nM.
Take `CC[C@@H]1CN(Cc2cc(C(CC(=O)O)c3ccn4c(C(F)(F)F)nnc4c3C)ccc2C)S(=O)(=O)c2cccnc2O1` (mixture of isomers) [Example 188, (R/S)-3-(3-(((R)-4-ethyl-1,1-dioxido-3,4-dihydro-2H-pyrido[2,3-b][1,4,5]oxathiazepin-2-yl)methyl)-4-methylphenyl)-3-(8-methyl-3-(trifluoromethyl)-[1,2,4]triazolo[4,3-a]pyridin-7-yl)propanoic acid]: in assay [1], the Kd was below 1 nM. This compound also came in with an EC50 in assay [2] (Homo sapiens, HEK293, 24 h) of 17 nM.
Taken in the same sequence, the figures for `Cc1cnc2c(c1)S(=O)(=O)N(Cc1cc([C@H](c3ccn4c(C(F)F)nnc4c3C)C(C)(C)C(=O)O)ccc1C)CC1(CCOCC1)O2` (single isomer, unassigned) [Example 577, (*R)-3-(3-(Difluoromethyl)-8-methyl-[1,2,4]triazolo[4,3-a]pyridin-7-yl)-2,2-dimethyl-3-(4-methyl-3-((8′-methyl-1′,1′-dioxido-2,3,5,6-tetrahydrospiro[pyran-4,4′-pyrido[2,3-b][1,4,5]oxathiazepin]-2′(3′H)-yl)methyl)phenyl)propanoic Acid] were 718 nM and 768 nM.
On the same counts, the results for `Cc1ccc([C@H](c2ccn3c(C(F)(F)F)nnc3c2C)C(C)(C)C(=O)O)cc1CN1CC2(CCOCC2)Oc2nc(OCCN3CCC(F)(F)CC3)ccc2S1(=O)=O` (single isomer, unassigned) [Example 360, (*R)-3-(3-((7′-(2-(4,4-Difluoropiperidin-1-yl)ethoxy)-1′,1′-dioxido-2,3,5,6-tetrahydrospiro[pyran-4,4′-pyrido[2,3-b][1,4,5]oxathiazepin]-2′(3′H)-yl)methyl)-4-methylphenyl)-2,2-dimethyl-3-(8-methyl-3-(trifluoromethyl)-[1,2,4]triazolo[4,3-a][pyridine-7-yl)propanoic Acid] are below 1 nM and 9.3 nM.
On the same counts, the results for `Cc1ccc(C(CC(=O)O)c2ccn3c(C(F)F)nnc3c2C)cc1CN1CC2(CC2)Oc2ncc(C(N)=O)cc2S1(=O)=O` (stereo not shown) [Example 551, 3-(3-((8′-Carbamoyl-1′,1′-dioxidospiro[cyclopropane-1,4′-pyrido[2,3-b][1,4,5]oxathiazepin]-2′(3′H)-yl)methyl)-4-methylphenyl)-3-(3-(difluoromethyl)-8-methyl-[1,2,4]triazolo[4,3-a]pyridin-7-yl)propanoic Acid] are 453 nM and above 20000 nM.
Regarding `Cc1ccc(C(c2ccn3c(C(F)(F)F)nnc3c2C)C(C)(C)C(=O)O)cc1CN1CC2(CCOCC2)Oc2nc(N[C@H](C)CCO)ccc2S1(=O)=O` (stereo partly shown) [Example 117], the dissociation constant (Kd) in assay [1] was below 1 nM. A half-maximal response in assay [2] (Homo sapiens, HEK293, 24 h) (EC50) required 425 nM.
Take `Cc1ccc([C@@H](CC(=O)O)c2ccc3c(nnn3C3CC3)c2C)cc1CN1C[C@H]2CCCN2c2ncccc2S1(=O)=O` (single isomer, unassigned) [Example 211, (*R)-3-(1-Cyclopropyl-4-methyl-1H-benzo[d][1,2,3]triazol-5-yl)-3-(3-(((R)-5,5-dioxido-7a,8,9,10-tetrahydropyrido[2,3-f]pyrrolo[2,1-d][1,2,5]thiadiazepin-6(7H)-yl)methyl)-4-methylphenyl)propanoic Acid]: the Kd in assay [1] came out at 1.1 nM. The same compound returned an EC50 in assay [2] (Homo sapiens, HEK293, 24 h) of 42 nM.
For `Cc1cnc2c(c1)S(=O)(=O)N(Cc1cc(C(CC(=O)O)c3ccn4c(C(F)F)nnc4c3C)ccc1C)C[C@@H]1CCCCN21` (stereo in doubt) [Example 499, 3-(3-(Difluoromethyl)-8-methyl-[1,2,4]triazolo[4,3-a]pyridin-7-yl)-3-(4-methyl-3-(((*S)-3-methyl-5,5-dioxido-7,7a,8,9,10,11-hexahydro-6H-dipyrido[2,1-d:2′,3′-f][1,2,5]thiadiazepin-6-yl)methyl)phenyl)propanoic Acid], the Kd in assay [1] was below 1 nM. Moreover, in assay [2] (Homo sapiens, HEK293, 24 h), the concentration for a half-maximal effect (EC50) amounted to 12.8 nM.
